Results taken from patent US20220290200A1, “GENETICALLY MODIFIED HOST CELLS PRODUCING GLYCOSYLATED CANNABINOIDS” (OCTARINE BIO IVS, priority 2019, published 2022).

Columns and labels:
[1] = test system: S. cerevisiae strain BY4741; experiment: Toxicity of cannabinoids and cannabinoid glycosides in S. cerevisiae (final OD600); format: cell-based; conditions: 3% ethanol; for Final OD600 of S. cerevisiae: 72 h; for toxicity to yeast (final OD600 after 72 h): YP media, 2% glucose, 30° C., concentration range tested
Method: It is well known that cannabinoids are toxic to microbes, and it is thought that these compounds are produced by cannabis plants as a defense mechanism against infection. […] Product toxicity in microbial strains engineered to produce cannabinoids will hinder high-level production of these molecules, glycosylating these molecules can be used to detoxify them and facilitate higher production titers in engineered microbial strains. […] Cells were inoculated to a starting OD600 of 0.1 and incubated at 30° C. and 200 RPM and the final OD600 was measured after 72 h.

[2] = Thermodynamic aqueous solubility assay in PBS; conditions: for Thermodynamic solubility: room temperature, PBS buffer pH 7.4, duplicate
Method: Alternatively, aqueous solubility was determined by a thermodynamic solubility assay as follows. 2.5 mg of test compound was weighed in a glass vial, 0.5 mL of phosphate buffered saline (pH=7.4) was added and the sample briefly vortexed. Samples were then incubated overnight at room temperature on a vial roller system to dissolve as much of the compound as possible into solution. Following incubation, the aqueous solutions were filtered in duplicate ([…]) and the filtrate diluted 1:1 with 100% methanol. Samples were further diluted where necessary and analyzed by HPLC. The concentration of compound in solution was determined by comparison to a standard curve made with authentic analytical standards.

[3] = In vitro glycosyl transferase performance, purified enzymes, % conversion of cannabinoids to cannabinoid glycosides; format: biochemical; conditions: acceptor CBD, UDP-Glucose
Method in brief: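 His-tagged glycosyl transferases expressed in E. coli XJb (DE3) were Ni-affinity purified. Cannabinoids (in methanol) were incubated with enzyme, UDP-sugar and alkaline phosphatase without shaking at 30 °C for 24 h. Products confirmed by LC-MS/QTOF; % conversion derived from substrate decrease and glycoside peak areas against authentic standards.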

Compound | Final OD600 of S. cerevisiae ([1]; 100 μM substrate added) | Final OD600 of S. cerevisiae ([1]; 200 μM substrate added) | Final OD600 of S. cerevisiae ([1]; 400 μM substrate added) | Final OD600 of S. cerevisiae ([1]; 800 μM substrate added) | toxicity to yeast (final OD600 after 72 h) [1] | solubility ([2]; phosphate buffered saline, pH 7.4, aqueous buffer, thermodynamic from solid) [mM] | Thermodynamic solubility [2] | Conversion % (CBD to the glycoside) ([3]; enzyme PL-159(Pt88G_GA), in vitro 30° C. 24 h) [%] | Conversion % (CBD to the glycoside) ([3]; enzyme PL-214(Cs73Y_GA)) [%]
C=C(C)[C@@H]1CCC(C)=C[C@H]1c1c(O)cc(CCCCC)cc1O [CBD, cannabidiol, reference compound] | 9.3 | 8.2 | 6.7 | 4.7 | toxic to yeast | ≤ 0.0005 | Below Detection Limit |  | 
C=C(C)[C@@H]1CCC(C)=C[C@H]1c1c(O)cc(CCCCC)cc1O[C@@H]1O[C@H](CO)[C@@H](O)[C@H](O)[C@H]1O [OB1, CBD-1′-O-β-D-glucoside] |  |  |  |  |  |  |  | 75 | 
C=C(C)[C@@H]1CCC(C)=C[C@H]1c1c(O[C@@H]2O[C@H](CO)[C@@H](O)[C@H](O)[C@H]2O)cc(CCCCC)cc1O[C@@H]1O[C@H](CO)[C@@H](O)[C@H](O)[C@H]1O [OB6, CBD-1′-O-β-D-glucosyl-3′-O-β-D-glucoside] | 9.1 | 8.8 | 9.5 | 8.8 | non-toxic at the concentration range tested |  | 11.4 ± 0.75 mM |  | 57.5
